The structures appear in SMILES notation.

The first data set is described as follows: method code SF, from DOI: 10.1016/j.ejps.2012.10.019, PMID: 23131797. The settings on record: pH 2.0.
In general, logD refers to the decadic logarithm of the distribution of all forms, ionised or not, between an organic phase and buffer at a given pH. Lower therefore signals a more hydrophilic compound. In turn, `Cc1ccc(C(=O)NCCc2ccc3c(c2)OCCO3)cc1[N+](=O)[O-]` yielded a logD of 3.28. On the same count and under the same terms, the same measure for `COc1cccc(-n2c(SCc3cc(=O)n4ccsc4n3)nc3ccccc3c2=O)c1`: 3.56. `Cc1ccc(OCCC(=O)N2CCN(S(=O)(=O)c3cccs3)CC2)cc1` had a logD of 2.98. Consider `CC(C)=CC(=O)OCC(=O)Nc1ccc(S(=O)(=O)N(C)C)cc1`, for which the pH-dependent lipophilicity (logD) turned out to be 2.26. `O=C(/C=C/c1ccc2c(c1)OCO2)Nc1ccc2c(c1)OCO2`: the logD stood at 3.72.

Staying with this data set, now noted: pH 5.0.
For `CC(C)N(Cc1nc(-c2ccccc2)no1)C(=O)c1ccccc1CCc1ccccc1`, the logD was determined as 5.98. `CCOC(=O)C1=C(Nc2ccc(OC(=O)Nc3ccc(OC(F)(F)F)cc3)cc2)C(=O)N(C(C)(C)C)C1` registered a logD of 6.72. As for `COCCCNC(=O)c1ccccc1C(F)(F)F`, the logD was determined as 2. `CC(C)OCCCNC(=O)C(=O)NCc1ccc(C(C)C)cc1` came in with a logD of 4.57. `CN(C(=O)c1c(F)c(F)c(F)c(F)c1F)C(C)(C)C` yielded a logD of 3.45. On to `CC(=O)NCCc1ccc(S(=O)(=O)N2CCOCC2)cc1`, for which the logD was 2.

On to `N#CCc1nc(-c2ccc3c(c2)OCCO3)cs1`, for which the logD was determined as 2.92. Same read-out and setting: for `CCC(CC)NC(=O)c1ccc(Cl)c(S(=O)(=O)N2CCCC2)c1` the value was 3.6. The compound `Cc1ccc(-n2c(=O)c3cc4c(=O)n(-c5ccc(C)c(C)c5)c(=O)c4cc3c2=O)cc1C` gave a logD of 4.83. For the compound `Cc1ccccc1-c1noc(CCl)n1`, the logD was 3.3. On the same count and under the same terms, for `COC(=O)c1ccc(Br)c(S(=O)(=O)N2CCCCC2)c1` the value was 3.66; for `O=C(COc1ccc(C(F)(F)F)cc1[N+](=O)[O-])Nc1ccccc1Br`, 5.16. Compound `COC(=O)c1cnn2c(C(F)(F)F)cc(-c3cc(OC)c(OC)c(OC)c3)nc12` gave a logD of 4.08.

In the case of `O=C(Nc1ccccc1C(F)(F)F)C1CCC1`, the logD was determined as 2.55. `CCCn1c(=O)c(Br)cn(-c2ccccc2C)c1=O` displayed a logD of 2.82. As to `CC(Sc1nc2ccccc2c(=O)n1-c1ccc(F)cc1)C(=O)NCc1ccc2c(c1)OCO2` (stereo unspecified), the logD amounted to 4.63. With `COc1ccc(S(=O)(=O)N(CC(=O)Nc2cccc([N+](=O)[O-])c2)C2CCCCC2)cc1Cl`, the logD is 5.48. `O=C(c1ccc(F)cc1)C1CC1` showed a logD of 2.61. With `C=CCOC(=O)COc1ccc2c(=O)c(-c3ccc(Cl)cc3)c(C)oc2c1`, the logD was 4.84. On the same count and under the same terms, the same measure for `COC(=O)c1ccc(-n2c(C)cc(C(=O)COc3cccc(-n4cnnn4)c3)c2C)cc1`: 4.77; for `O=C(CSCc1ccccc1)Nc1ccc(-c2ccc([N+](=O)[O-])cc2)cc1`: 5.38; for `COc1cccc(OCCn2c(=O)c3cc4c(=O)n(CCOc5cccc(OC)c5)c(=O)c4cc3c2=O)c1`: 5.43.

`CC(C)NC(=O)COC(=O)c1ccc(S(=O)(=O)N2CCCCCC2)cc1` came in with a log distribution coefficient (logD) of 3.78. Compound `Cn1ncc(Br)c1C(=O)N1CCCCCC1` yielded a logD of 2.63. The compound `O=C(OCC(=O)N1CCCC1)c1c2ccccc2cc2ccccc12` displayed a logD of 4.09.

Turning to `N#CCc1nc(-c2ccc3c(c2)OCCCO3)cs1`, the logD is 2.68. In turn, `COC(=O)c1cccc(NC(=O)CCN2C(=O)c3ccccc3C2=O)c1` gave a logD of 3.39. Compound `C#CCOc1c(I)cc(C=C2C(=O)N(C)C(=S)N(C)C2=O)cc1OCC` registered a logD of 3.72. Turning to `Cn1c2ccccc2n2c3nc(C#N)c(C#N)nc3c(C#N)c12`, the logD stood at 3.61. `O=C(OCC(=O)N1CCC(Cc2ccccc2)CC1)C1CCCCC1`: the logD was 4.98. As for `COc1c(Cl)ccc(Cl)c1C(=O)Nc1ccc(C)cc1C`, the logD was found to be 4.

`COC(=O)c1ccc(C)c(NC(=O)Cc2coc3cc4c(cc23)CCC4)c1` registered a logD of 4.78. Compound `COc1ccc(OC)c(NC(=O)c2ccc(NC3=C(Cl)C(=O)N(C4CCCCC4)C3=O)cc2)c1` yielded a logD of 5.96. As to `COc1ccc(CNC(=O)C2CCCC2)cc1`, the logD amounted to 2.6.

In turn, `COc1ccc(C(C)=O)cc1COC(=O)c1cc(Cl)ccc1Cl` displayed a logD of 4.45. As to `CCCCOc1ccc(C(=O)N(CCN2C(=O)c3ccccc3C2=O)c2cccc(OC)c2)cc1`, the logD is 5.35. As to `COc1ccccc1Nc1nc(OCC(F)(F)F)nc(OCC(F)(F)F)n1`, the logD amounted to 5.27. `CC(NS(C)(=O)=O)c1ccccc1` (stereo unspecified) displayed a logD of 1.8. With `CCCN(CC1CC1)C(=S)Nc1cc([N+](=O)[O-])ccc1Cl`, the logD stood at 4.1. As to `O=P(OCC(F)(F)F)(OCC(F)(F)F)N1CCOCC1`, the logD came to 2.69. `Cc1ccc(C)c(S(=O)(=O)N(C)c2ccc(OC(=O)c3ccc4c(c3)OCO4)cc2)c1` returned a logD of 5.87.

In the case of `CCn1cc(-c2nc3c4c(C)c(C)sc4ncn3n2)cn1`, the logD amounted to 3.77. `O=C(Cn1cc(C(=O)C(F)(F)F)c2cc(Br)ccc21)N1CCCCCC1` registered a logD of 4.62.

Still in this data set, the particulars now being: pH 6.5.
For the compound `O=C(c1cccc([N+](=O)[O-])c1)N(Cc1ccccc1F)N1C(=O)c2ccccc2C1=O`, the logD stood at 4.47. `CC(C)(C)c1cc(C(F)(F)F)nc(SCCNC(=O)C2CCCCC2)n1` displayed a logD of 5.77. Take `CC1CCC2(CC1)N=C(c1ccccc1)C(=O)N2CC(=O)Nc1ccc2c(c1)OCCO2` (stereo unspecified): the logD came to 5.07. `CC(=O)Nc1nc2cc3sc(NC(C)=O)nc3cc2s1`: the logD turned out to be 3.13. Consider `COc1ccccc1N1C(=O)c2ccc(C(=O)Nc3ccc(-c4nnc(-c5ccccc5)o4)cc3)cc2C1=O`, for which the logD stood at 6.17. On to `N#CC1=C(N)Oc2c(oc(CO)cc2=O)C1c1ccccc1OCc1ccccc1Cl` (stereo unspecified), for which the logD was found to be 4.34. `COCCn1c(C)cc(C(=O)CSc2ncnc3sc(C)c(C)c23)c1C`: the logD stood at 4.59. Compound `C=CCNC(=O)CSc1nc(C(F)F)cc(-c2cn(C)nc2C)c1C#N` yielded a logD of 3.74. Compound `CC(=O)N1CC(=O)N(CC(=O)N(Cc2ccccc2)c2nc(-c3ccccc3)cs2)C1=S` gave a log distribution coefficient (logD) of 4.43. As to `O=C(CSc1nc2ccccc2c(=O)n1-c1ccc(Cl)cc1)NC1CCCCC1`, the logD stood at 4.92.

The data set is the same for the next values; noted with them: pH 7.0.
In turn, `Cc1ccc(C(=O)N2C(=O)c3cccc(N)c3C2=O)cc1NC(=O)c1ccco1` had a logD of 3.55.

Staying with this data set, now noted: pH 7.3.
In turn, `C=CCn1c(SCC(=O)Nc2ccc(C)c(F)c2)nnc1-c1cccs1` came in with a logD of 4.48.

Consider `COc1cccc(-c2ccc3c(N)c(C(=O)Nc4ccc(F)c(F)c4)sc3n2)c1`, for which the logD turned out to be 5.86. As for `CC(Sc1nnc(-c2ccc(F)cc2)n1-c1ccccc1)C(N)=O` (stereo unspecified), the logD amounted to 3.38. In the case of `Cc1ccnc(N(C(=O)c2cc3c(s2)CCCC3)C(=O)c2cc3c(s2)CCCC3)c1`, the logD was 5.76. Consider `COC(=O)c1sc(N)nc1C`, for which the logD is 1.48. As to `O=C(c1nn(-c2ccccc2)c(=O)c2ccccc12)N1CCOCC1`, the logD came to 2.47. The same measure, in the same setting: the same measure for `COc1ccccc1NC(=O)C1=C(C)Nc2nc(SCc3ccccc3F)nn2C1c1ccncc1` (stereo unspecified): 4.66; for `O=C(c1ccccc1)c1ccc(N2CCN(C(=O)c3c(F)cccc3F)CC2)c(F)c1`: 5.14; for `COc1cccc(OC)c1C(=O)Nc1ccc(N2CCN(C(=O)c3ccccc3C)CC2)cc1`: 4.16. For `COc1ccc(C2CC(=O)C3=C(C2)Nc2ccccc2N(C(=O)C(F)(F)F)C3c2cc(OC)c(OC)c(OC)c2)cc1` (stereo unspecified), the logD was found to be 4.87. Still for that read-out and setting: the same measure for `COc1cccc(Cn2cc(N)cn2)c1`: 1.55. Turning to `COc1cccc(NC(=O)CSc2nnc3ccccn23)c1`, the log distribution coefficient (logD) was determined as 2.45. On to `Cc1cc(Br)ccc1NC(=O)CSc1nnc(N)s1`, for which the logD stood at 2.69.

For `Cn1c(C(=O)N2CCC3(CC2)OCCO3)cc2c(=O)n3ccccc3nc21`, the logD came to 2.87.

Take `O=C(CSc1ncnc2sc3c(c12)CCC3)Nc1ccc(F)cc1`: the logD amounted to 4.69.

Still in this data set, the particulars now being: pH 10.0.
In the case of `CN(C)S(=O)(=O)c1cccc(C(=O)NCCc2ccc(Cl)cc2Cl)c1`, the logD worked out at 4.48. `Cc1cc(C(F)(F)F)n2nc(-c3nnc(-c4cccc(C(F)(F)F)c4)o3)cc2n1` yielded a logD of 4.92. Consider `CCCSc1nc2c(c(=O)n1-c1ccc(Br)cc1)SCC2`, for which the logD was 4.61. On the same count and under the same terms, for `Nc1ccccc1Nc1ccccc1` the value was 2.67; for `Cc1ccc(C)n1-c1ccc(-c2ccnc3ncnn23)cc1`, 3.5; for `Nc1nc2nc3nc(N)sc3cc2s1`, 1.56.

Consider `Cn1c(N)c(C(=O)COC(=O)C2CC2)c(=O)n(C)c1=O`, for which the logD was determined as 2.17.

Still in this data set, the particulars now being: pH 10.5.
As for `CC(C)(C)c1cc(Cc2ccccc2)n[nH]1`, the logD amounted to 4.35. The compound `Cc1nn(C)cc1-c1cc(C(F)(F)F)n2ncc(C(=O)N(C3CCCCC3)C3CCCCC3)c2n1` showed a logD of 5.81. In turn, `O=C(CSc1nnc(-c2ccccc2)n1-c1ccccc1)N1CCN(C(=O)c2ccccc2)CC1` returned a log distribution coefficient (logD) of 4.64. The compound `CCN(CC)c1ccc(C=C2C(=O)c3ccccc3C2=O)c(OC)c1` yielded a logD of 5.05. `Cc1nnc2c(=O)n(CCNc3ncc(C(F)(F)F)cc3Cl)c3ccc(Cl)cc3n12` yielded a logD of 4.57. `C=C(C)CSc1nnc(-c2cccc(S(=O)(=O)N3CCOCC3)c2)n1C1CCCC1` had a logD of 4.73. Same read-out and setting: for `Cn1c(N)c(C(=O)CSc2nc3ccccc3nc2SCC(=O)c2c(N)n(C)c(=O)n(C)c2=O)c(=O)n(C)c1=O` the value was 2.59; for `Cc1nc2c(N)nnc(N)c2nc1C`, 1.14. For the compound `COc1ccc(-c2nnc(SCC(=O)c3c(N)n(C)c(=O)n(C)c3=O)n2-c2cccc(C(F)(F)F)c2)cc1`, the logD was 4.89. `CN(C)c1nc(N)nc(COC(=O)c2ccc(-n3cnnc3)cc2)n1`: the logD was found to be 2.74.

In turn, `Cc1ccc(S(=O)(=O)N(C)c2ccc(OCC(=O)N3CCN(c4ncccn4)CC3)cc2)cc1` yielded a logD of 4.46.

`Cn1c(=O)c(C(=O)CN2CCSc3ccccc32)c(N)n(Cc2ccccc2)c1=O` displayed a logD of 4.71. As for `COc1cc(C2C(C#N)=C(N)Oc3cc(C)[nH]c(=O)c32)cc(OC)c1OC` (stereo unspecified), the logD was determined as 2.55. On the same count and under the same terms, for `COCCn1c(C)cc(C(=O)CSc2nnc3[nH]c4ccccc4n23)c1C` the value was 3.45; for `CC(=O)Oc1cc(C(=O)Nc2ccc(Oc3ccccc3)cc2)cc(OC(C)=O)c1OC(C)=O`, 2.89.

The record behind these values is the SangsterLogP compilation.
